# Results reported in US20150307938A1, “METHOD TO IDENTIFY A NOVEL CLASS OF IMMUNOLOGIC ADJUVANTS” (Lancell, L.L.C., priority 2011, published 2015).
# Test system: PR8
# Parameters: species or system mice
# Conditions: mouse, in vivo
smiles,measurement,value
"CCCCOC(=O)c1ccccc1C(=O)OCCCC [DBP, dibutylphthalate]",survival of a lethal dose of virus,mice survived a lethal dose of virus
